This is an account of results in ChEMBL document CHEMBL5579840, “Optimization of diastereomeric dihydropyridines as antimalarials” (Eur J Med Chem, 2024).

The structures appear in SMILES notation.

The test system of test [1] is Plasmodium falciparum. The experiment in a line: Antimalarial activity against chloroquine-sensitive Plasmodium falciparum 3D7 infected in erythroctes incubated for 72 hrs by SYBR green 1 based spectrofluorometer. Format: functional, organism-based, Erythrocyte. Conditions: erythrocyte.
Test [2] relates to Plasmodium falciparum. The experiment in a line: Antimalarial activity against chloroquine-resistant Plasmodium falciparum K1 infected in erythroctes incubated for 72 hrs by SYBR green 1 based spectrofluorometer. The format is functional, organism-based, Erythrocyte. The note with it: erythrocyte.

Take `CCOC(=O)C1=C(c2ccccc2)NC2=C(C(=O)CC(c3ccc(OC)c(OC)c3)C2)C1c1ccccc1Cl` (mixture of isomers): the results for the EC50 with Plasmodium falciparum [1] and in the test with Plasmodium falciparum [2] were 0.176 µM and 0.0923 µM, respectively.
For `CCOC(=O)C1=C(C)NC2=C(C(=O)CC(c3ccc(Cl)c(OC)c3)C2)C1c1ccccc1Cl` (mixture of isomers) the same measures were 0.0477 µM and 0.0512 µM.
With `CCOC(=O)C1=C(C)NC2=C(C(=O)CC(c3ccc(OC)c(OC)c3)C2)C1c1ccc(Cl)cc1C` (mixture of isomers), the EC50 in the test on Plasmodium falciparum [1] was 0.0551 µM; in the test on Plasmodium falciparum [2], 0.0385 µM.
The corresponding values for `CCCC1=C(C(=O)OCC)C(c2ccccc2Cl)C2=C(CC(c3ccc(OC)c(OC)c3)OC2=O)N1` (mixture of isomers) are 0.029 µM and 0.0155 µM.
The corresponding values for `CCCOC(=O)C1=C(C)NC2=C(C(=O)OC(c3ccc(OC)c(OC)c3)C2)C1c1ccccc1Cl` (mixture of isomers) are 1.67 µM and 1.63 µM.
The corresponding values for `CCOC(=O)C1=C(C)NC2=C(C(=O)OC(c3ccc(OC)c(OC)c3)C2)C1c1ccc(Cl)cc1C` (mixture of isomers) are 0.0195 µM and 0.0468 µM.
Take `CCOC(=O)C1=C(C)NC2=C(C(=O)CC(c3cc(OC)c(OC)c(OC)c3)C2)C1c1ccccc1Cl` (mixture of isomers): the EC50 in the test with Plasmodium falciparum [1] was 0.0036 µM; in the test on Plasmodium falciparum [2], 0.0049 µM.
For `COc1ccc(C2CC3=C(C(=O)O2)C(c2ccccc2Cl)C(C(=O)OCc2ccccc2)=C(C)N3)cc1OC` (mixture of isomers) the same measures were > 7.5 µM and > 7.5 µM.
For `CCOC(=O)C1=C(C)NC2=C(C(=O)OC(c3ccc(OC)c(OC)c3)C2)C1c1ccc(Br)cc1` (mixture of isomers) the same measures were 0.213 µM and 0.634 µM.
With `COC(=O)C1=C(C)NC2=C(C(=O)OC(c3ccc(OC)c(OC)c3)C2)C1c1ccccc1Cl` (mixture of isomers), the EC50 in the test on Plasmodium falciparum [1] and with Plasmodium falciparum [2] was > 9.4 µM each time.
For the compound `CCOC(=O)C1=C(C(=O)OCC)C(c2ccccc2Cl)C2=C(CC(c3ccc(OC)c(OC)c3)OC2=O)N1` (mixture of isomers), the figures for the EC50 in the test with Plasmodium falciparum [1] and with Plasmodium falciparum [2] were 0.0587 µM and 0.0222 µM, respectively.
The corresponding values for `CCOC(=O)C1=C(C)NC2=C(C(=O)OC(c3ccc(OC)c(OC)c3)C2)C1c1ccccc1C` (mixture of isomers) are 0.0727 µM and 0.123 µM.
For `CCCC1=C(C(=O)OCC)C(c2ccccc2Cl)C2=C(CC(c3ccc(OC)c(OC)c3)CC2=O)N1` (mixture of isomers) the same measures were 0.0023 µM and 0.0038 µM.
The corresponding values for `COCC1=C(C(=O)OC)C(c2ccc(Cl)cc2C)C2=C(CC(c3ccc(OC)c(OC)c3)OC2=O)N1` (mixture of isomers) are 0.112 µM and 0.0813 µM.
Turning to `CCCC1=C(C(=O)OCC)C(c2ccc(Cl)cc2C)C2=C(CC(c3ccc(Cl)c(OC)c3)CC2=O)N1` (mixture of isomers), the EC50 with Plasmodium falciparum [1] stood at 0.0279 µM; in the test with Plasmodium falciparum [2], 0.0489 µM.
The corresponding values for `CCCC1=C(C(=O)OCC)C(c2ccc(Cl)cc2C)C2=C(CC(c3cc(OC)ccc3OC)CC2=O)N1` (mixture of isomers) are 0.0551 µM and 0.0444 µM.
For `CCOC(=O)C1=C(C)NC2=C(C(=O)OC(c3ccccc3)C2)C1c1ccccc1Cl` (mixture of isomers), in the test on Plasmodium falciparum [1], the EC50 is > 10 µM.
Regarding `CCCC1=C(C(=O)OCC)C(c2ccc(Cl)cc2C)C2=C(CC(c3ccc(OC)c(OC)c3)OC2=O)N1` (mixture of isomers), the EC50 turned out to be 0.03 µM in the test with Plasmodium falciparum [1] and 0.022 µM in the test on Plasmodium falciparum [2].
The corresponding values for `CCOC(=O)C1=C(C)NC2=C(C(=O)OC(c3ccc(OC)c(OC)c3)C2)C1c1ccccc1Cl` (mixture of isomers) are 0.372 µM and 0.323 µM.
The corresponding values for `CCOC(=O)C1=C(C)NC2=C(C(=O)OC(c3ccc(Cl)c(OC)c3)C2)C1c1ccccc1Cl` (mixture of isomers) are 0.595 µM and 0.345 µM.
As to `COc1ccc(C2CC3=C(C(=O)O2)C(c2ccccc2Cl)C(C(=O)OC(C)(C)C)=C(C)N3)cc1OC` (mixture of isomers), in the test on Plasmodium falciparum [2], the response was half-maximal at 2.65 µM (EC50).
For the compound `CCOC(=O)C1=C(C)NC2=C(C(=O)OC(c3ccc(Cl)c(OC)c3)C2)C1c1ccc(Cl)cc1C` (mixture of isomers), the EC50 in the test with Plasmodium falciparum [1] came out at 0.08 µM; in the test on Plasmodium falciparum [2] it was 0.0732 µM.
For `CCOC(=O)C1=C(C)NC2=C(C(=O)OC(c3ccc(OC)c(OC)c3)C2)C1c1ccc(C)cc1` (mixture of isomers) the same measures were 1.25 µM and 1.61 µM.
With `CCOC(=O)C1=C(C)NC2=C(C(=O)OC(c3ccc(OC)c(OC)c3)C2)C1c1ccccc1OC` (mixture of isomers), the concentration for a half-maximal effect (EC50) with Plasmodium falciparum [1] was > 5.5 µM.
Turning to `COCC1=C(C(=O)OC)C(c2ccc(Cl)cc2)C2=C(CC(c3cc(OC)c(OC)c(OC)c3)OC2=O)N1` (mixture of isomers), the 50% effective concentration (EC50) with Plasmodium falciparum [1] was 0.0308 µM; with Plasmodium falciparum [2] it was 0.0436 µM.
Regarding `CCOC(=O)C1=C(C)NC2=C(C(=O)OC(c3ccc(Cl)cc3)C2)C1c1ccccc1Cl` (mixture of isomers), the EC50 with Plasmodium falciparum [1] and with Plasmodium falciparum [2] was > 5.5 µM throughout.
As for `COCC1=C(C(=O)OC)C(c2ccc(Cl)cc2C)C2=C(CC(c3ccc(OC)c(OC)c3)CC2=O)N1` (mixture of isomers), the EC50 in the test with Plasmodium falciparum [1] was 0.0024 µM; in the test with Plasmodium falciparum [2] it was 0.0046 µM.
For `CCOC(=O)C1=C(C)NC2=C(C(=O)CC(c3ccc(OC)c(OC)c3)C2)C1c1ccc(Cl)cc1` (mixture of isomers) the same measures were 0.0163 µM and 0.0189 µM.
As for `CCOC(=O)C1=C(C)NC2=C(C(=O)OC(c3ccc(OC)c(OC)c3)C2)C1c1ccccc1` (mixture of isomers), the concentration giving a half-maximal response (EC50) came to 0.18 µM with Plasmodium falciparum [1] and 0.12 µM with Plasmodium falciparum [2].
For `CCOC(=O)C1=C(C)NC2=C(C(=O)CC(c3ccc(Cl)c(OC)c3)C2)C1c1ccc(Cl)cc1C` (mixture of isomers) the same measures were 0.0783 µM and 0.0691 µM.
Turning to `CCOC(=O)C1=C(C)NC2=C(C(=O)OC(c3cccc(OC)c3)C2)C1c1ccccc1Cl` (mixture of isomers), the values for the EC50 in the test on Plasmodium falciparum [1] and with Plasmodium falciparum [2] were 2.42 µM and > 6 µM, respectively.
For `CCOC(=O)C1=C(C)NC2=C(C(=O)OC(c3ccccc3Cl)C2)C1c1ccccc1Cl` (mixture of isomers) the same measures were > 6 µM and > 6 µM.
For the compound `CCCC1=C(C(=O)OCC)C(c2ccc(Cl)cc2C)C2=C(CC(c3ccc(OC)c(OC)c3)CC2=O)N1` (mixture of isomers), the results for the EC50 with Plasmodium falciparum [1] and with Plasmodium falciparum [2] were 0.0135 µM and 0.0241 µM, respectively.
As to `CCOC(=O)C1=C(C)NC2=C(C(=O)CC(c3ccc(OC)c(OC)c3)C2)C1c1ccccc1Cl` (mixture of isomers), the EC50 is 0.0171 µM in the test with Plasmodium falciparum [1] and 0.028 µM with Plasmodium falciparum [2].
For `CCOC(=O)C1=C(C)NC2=C(C(=O)OC(c3ccc(OC)c(OC)c3)C2)C1c1ccccc1` (stereo in doubt; 1B) the same measures were 0.083 µM and 0.08 µM.
For the compound `CCOC(=O)C1=C(C)NC2=C(C(=O)CC(c3ccc(OC)c(OC)c3)C2)C1c1ccccc1Cl` (stereo in doubt; 2B), the EC50 in the test on Plasmodium falciparum [1] came to 0.0135 µM; in the test with Plasmodium falciparum [2], 0.0157 µM.
The corresponding values for `CCOC(=O)C1=C(C)NC2=C(C(=O)OC(c3ccc(OC)c(OC)c3)C2)C1c1ccc(Cl)cc1` (stereo in doubt; 5) are 0.0918 µM and 0.16 µM.
The corresponding values for `CCOC(=O)C1=C(C)NC2=C(C(=O)OC(c3ccc(OC)c(OC)c3)C2)C1c1ccc(Cl)cc1` (stereo in doubt; 5B) are 0.0476 µM and 0.0538 µM.
Regarding `CCOC(=O)C1=C(C)NC2=C(C(=O)OC(c3ccc(OC)c(OC)c3)C2)C1c1ccccc1C` (stereo in doubt; 6B), the concentration giving a half-maximal response (EC50) in the test on Plasmodium falciparum [1] is 0.0385 µM; with Plasmodium falciparum [2] it was 0.0597 µM.
The corresponding values for `CCOC(=O)C1=C(C)NC2=C(C(=O)OC(c3ccc(OC)c(OC)c3)C2)C1c1ccc(C)cc1` (stereo in doubt; 8B) are 0.638 µM and 0.605 µM.
Take `CCOC(=O)C1=C(C)NC2=C(C(=O)OC(c3ccc(OC)c(OC)c3)C2)C1c1ccccc1OC` (stereo in doubt; 9B): the EC50 is 2.05 µM in the test on Plasmodium falciparum [1] and > 5.5 µM in the test on Plasmodium falciparum [2].
In the case of `CCOC(=O)C1=C(C)NC2=C(C(=O)OC(c3ccc(OC)c(OC)c3)C2)C1c1ccc(Br)cc1` (stereo in doubt; 12B), the EC50 in the test with Plasmodium falciparum [1] came to 0.059 µM; with Plasmodium falciparum [2], 0.341 µM.
The corresponding values for `CCOC(=O)C1=C(C)NC2=C(C(=O)OC(c3ccc(OC)c(OC)c3)C2)C1c1ccc([N+](=O)[O-])cc1` (stereo in doubt; 13B) are 2.71 µM and 2.2 µM.
On to `CCOC(=O)C1=C(C)NC2=C(C(=O)OC(c3ccccc3)C2)C1c1ccccc1Cl` (stereo in doubt; 17B), for which the EC50 in the test with Plasmodium falciparum [1] is > 11 µM.
As for `CCOC(=O)C1=C(C)NC2=C(C(=O)OC(c3ccc(Cl)cc3)C2)C1c1ccccc1Cl` (stereo in doubt; 20B), the EC50 amounted to 2.86 µM with Plasmodium falciparum [1] and 2.16 µM with Plasmodium falciparum [2].
The corresponding values for `CCOC(=O)C1=C(C)NC2=C(C(=O)OC(c3cccc(C)c3)C2)C1c1ccccc1Cl` (stereo in doubt; 22B) are > 6 µM and > 6 µM.
With `CCOC(=O)C1=C(C)NC2=C(C(=O)OC(c3ccc(C)cc3)C2)C1c1ccccc1Cl` (stereo in doubt; 23B), the EC50 in the test on Plasmodium falciparum [1] is > 6 µM; in the test on Plasmodium falciparum [2] it was 1.58 µM.
The corresponding values for `CCOC(=O)C1=C(C)NC2=C(C(=O)OC(c3ccccc3OC)C2)C1c1ccccc1Cl` (stereo in doubt; 24B) are > 5.5 µM and > 5.5 µM.
For `CCOC(=O)C1=C(C)NC2=C(C(=O)OC(c3cccc(OC)c3)C2)C1c1ccccc1Cl` (stereo in doubt; 25B) the same measures were 0.626 µM and 0.363 µM.
With `COc1ccc(C2CC(=O)C3=C(C2)NC(C)=C(C(=O)O)C3c2ccccc2Cl)cc1OC` (stereo in doubt; 27B), the EC50 with Plasmodium falciparum [1] is > 12 µM.
In the test on Plasmodium falciparum [2], `COc1ccc(C2CC3=C(C(=O)O2)C(c2ccccc2Cl)C(C(=O)OC(C)(C)C)=C(C)N3)cc1OC` (stereo in doubt; 30B) had an EC50 of 0.272 µM.
